Where two headings read alike, the source gives them in different places.
Tests used:
RAD51 = test: HDR efficiency after treatment with RS-1; type: cell-based; conditions: RS-1 as activator of RAD51
From the text: As a method which can be used either simultaneously or separately from the approaching method of above VI, there is a method of activating HDR pathway-regulating proteins by using chemical factors.

recombinase RAD51 = conditions: mouse, reported; cited from earlier work
[1] = system: ligase IV of the NHEJ pathway; test: HDR efficiency after treatment with NHEJ inhibitor SCR7 pyrazine, tomato cotyledons with pTC217 / pTC147; type: cell-based; conditions: for Editing efficiency: total purple spots (pTC217)/total purple spots (pTC147)×100 / Editing efficiency / Purple spot/cotyledon (Avg.) / Purple spots (Total): 21 dpi
From the text: In the present invention, a method of increasing the HDR efficiency according to blocking of the NHEJ pathway by using Scr7 pyrazine chemical compound, which is an inhibitor of ligase IV of the NHEJ pathway in competitive relationship with the HDR pathway, was employed. As a result, when Scr7 pyrazine is used, the HDR efficiency had increased by 4 times compared to the comparative control group.
In order to measure the HDR frequency of Cas9, 21 days after the Agrobacterium infection, purple spots were counted from the cotyledon which has been infected with pTC217 (BeYDV with Cas9/gRNA1b) virus replicon and also from the cotyledon which has been transformed with pTC147 (35S:ANT1 T-DNA) control vector. By dividing the total number of purple spots that has been counted from callus generated with pTC217 by the total number of purple spots that has been counted from callus generated with pTC147, the HDR frequency rate was estimated.
DNA repair is mostly achieved by NHEJ pathway, and HDR-based repair occurs very limitedly. According to previous studies made on mammals, it was reported that HDR efficiency can be increased by blocking the NHEJ pathway. It is reported that SCR7 pyrazine, which is an inhibitor of mammalian ligase IV, can increase HDR as much as about 19 times in mouse, or 5 times in human cell line. […] However, no report has been made regarding the influence of SCR7 pyrazine on plant HDR. Accordingly, the effect of a treatment with different cultivation period (0, 1, 2 or 3 days) or different SCR7 pyrazine concentration (0, 1, 10 μM) was examined by the inventors of the present invention by using Cas9 structure pTC217 (BeYDV having Cas9/gRNA1b).
[Editing efficiency: total purple spots (pTC217)/total purple spots (pTC147)×100]

ligase IV = conditions: reported, background art; cited from earlier work
mammalian ligase IV [2] = conditions: mouse, reported; cited from earlier work
mammalian ligase IV [3] = conditions: human cell line, reported; cited from earlier work
[4] = Table 13 (Change 1), pTC147 (T-DNA), SCR7 1 μM, 1 day, cv. Hong-Kwang, DD→16L/8D, 28° C.
[5] = Table 13 (Change 1), pTC147 (T-DNA), SCR7 1 μM, 2 days, cv. Hong-Kwang, DD→16L/8D, 28° C.
[6] = Table 13 (Change 1), pTC147 (T-DNA), SCR7 1 μM, 3 days, cv. Hong-Kwang, DD→16L/8D, 28° C.
[7] = Table 13 (Change 1), pTC147 (T-DNA), SCR7 10 μM, 1 day, cv. Hong-Kwang, DD→16L/8D, 28° C.
[8] = Table 13 (Change 1), pTC147 (T-DNA), SCR7 10 μM, 2 days, cv. Hong-Kwang, DD→16L/8D, 28° C.
[9] = Table 13 (Change 1), pTC147 (T-DNA), SCR7 10 μM, 3 days, cv. Hong-Kwang, DD→16L/8D, 28° C.
[10] = Table 13 (Change 1), pTC217, SCR7 1 μM, 1 day, cv. Hong-Kwang, DD→16L/8D, 28° C.
[11] = Table 13 (Change 1), pTC217, SCR7 1 μM, 2 days, cv. Hong-Kwang, DD→16L/8D, 28° C.
[12] = Table 13 (Change 1), pTC217, SCR7 1 μM, 3 days, cv. Hong-Kwang, DD→16L/8D, 28° C.
[13] = Table 13 (Change 1), pTC217, SCR7 10 μM, 1 day, cv. Hong-Kwang, DD→16L/8D, 28° C.
[14] = Table 13 (Change 1), pTC217, SCR7 10 μM, 2 days, cv. Hong-Kwang, DD→16L/8D, 28° C.
[15] = Table 13 (Change 1), pTC217, SCR7 10 μM, 3 days, cv. Hong-Kwang, DD→16L/8D, 28° C.
[16] = Table 14 (Change 2), pTC147 (T-DNA), SCR7 1 μM, 1 day, cv. Hong-Kwang, DD→16L/8D, 28° C.
[17] = Table 14 (Change 2), pTC147 (T-DNA), SCR7 1 μM, 2 days, cv. Hong-Kwang, DD→16L/8D, 28° C.
[18] = Table 14 (Change 2), pTC147 (T-DNA), SCR7 1 μM, 3 days, cv. Hong-Kwang, DD→16L/8D, 28° C.
[19] = Table 14 (Change 2), pTC147 (T-DNA), SCR7 10 μM, 1 day, cv. Hong-Kwang, DD→16L/8D, 28° C.
[20] = Table 14 (Change 2), pTC147 (T-DNA), SCR7 10 μM, 2 days, cv. Hong-Kwang, DD→16L/8D, 28° C.
[21] = Table 14 (Change 2), pTC147 (T-DNA), SCR7 10 μM, 3 days, cv. Hong-Kwang, DD→16L/8D, 28° C.
[22] = Table 14 (Change 2), pTC217, SCR7 1 μM, 1 day, cv. Hong-Kwang, DD→16L/8D, 28° C.
[23] = Table 14 (Change 2), pTC217, SCR7 1 μM, 2 days, cv. Hong-Kwang, DD→16L/8D, 28° C.
[24] = Table 14 (Change 2), pTC217, SCR7 1 μM, 3 days, cv. Hong-Kwang, DD→16L/8D, 28° C.
[25] = Table 14 (Change 2), pTC217, SCR7 10 μM, 1 day, cv. Hong-Kwang, DD→16L/8D, 28° C.
[26] = Table 14 (Change 2), pTC217, SCR7 10 μM, 2 days, cv. Hong-Kwang, DD→16L/8D, 28° C.
[27] = Table 14 (Change 2), pTC217, SCR7 10 μM, 3 days, cv. Hong-Kwang, DD→16L/8D, 28° C.
[28] = pTC147 (T-DNA), SCR7 1 μM, cv. Tom-Heart, 16L/8D, 25° C.
[29] = pTC147 (T-DNA), SCR7 10 μM, cv. Tom-Heart, 16L/8D, 25° C.
[30] = pTC217, SCR7 1 μM, cv. Tom-Heart, 16L/8D, 25° C.
[31] = pTC217, SCR7 10 μM, cv. Tom-Heart, 16L/8D, 25° C.

## O=C(Nc1ccc(Br)cc1)c1ccc(Br)c(S(=O)(=O)NCc2ccccc2)c1 [RS-1, RAD51-stimulatory compound 1]
RAD51
  increase of HDR efficiency: approximately 3 times
Recombinase RAD51
  effect on HDR efficiency: can increase the HDR efficiency in mouse

## O=c1[nH]c(=S)[nH]c2nc(-c3ccccc3)c(-c3ccccc3)nc12 [SCR7, 2,3-dihydro-6,7-diphenyl-2-thioxo-4 (1H)-pteridinone]
[1]; SCR7 1 μM, cv. Tom-Heart, 16L/8D, 25° C.
  Editing efficiency: total purple spots (pTC217)/total purple spots (pTC147)×100: 4.5
[1]; SCR7 10 μM, cv. Tom-Heart, 16L/8D, 25° C.
  Editing efficiency: total purple spots (pTC217)/total purple spots (pTC147)×100: 11.9
[1]; Table 13 (Change 1), SCR7 1 μM, 1 day, cv. Hong-Kwang, DD→16L/8D, 28° C.
  Editing efficiency: 1.89
[1]; Table 13 (Change 1), SCR7 1 μM, 2 days, cv. Hong-Kwang, DD→16L/8D, 28° C.
  Editing efficiency: 3.39
[1]; Table 13 (Change 1), SCR7 1 μM, 3 days, cv. Hong-Kwang, DD→16L/8D, 28° C.
  Editing efficiency: 7.74
[1]; Table 13 (Change 1), SCR7 10 μM, 1 day, cv. Hong-Kwang, DD→16L/8D, 28° C.
  Editing efficiency: 3.41
[1]; Table 13 (Change 1), SCR7 10 μM, 2 days, cv. Hong-Kwang, DD→16L/8D, 28° C.
  Editing efficiency: 9.27
[1]; Table 13 (Change 1), SCR7 10 μM, 3 days, cv. Hong-Kwang, DD→16L/8D, 28° C.
  Editing efficiency: 22.93
[1]; [4]
  Purple spot/cotyledon (Avg.): 28.7
  Purple spots (Total): 1005
[1]; [5]
  Purple spot/cotyledon (Avg.): 26.9
  Purple spots (Total): 942
[1]; [6]
  Purple spot/cotyledon (Avg.): 23.2
  Purple spots (Total): 813
[1]; [7]
  Purple spot/cotyledon (Avg.): 20.1
  Purple spots (Total): 703
[1]; [8]
  Purple spot/cotyledon (Avg.): 18.8
  Purple spots (Total): 658
[1]; [9]
  Purple spot/cotyledon (Avg.): 14.2
  Purple spots (Total): 497
[1]; [10]
  Purple spot/cotyledon (Avg.): 0.55
  Purple spots (Total): 19
[1]; [11]
  Purple spot/cotyledon (Avg.): 0.93
  Purple spots (Total): 32
[1]; [12]
  Purple spot/cotyledon (Avg.): 1.8
  Purple spots (Total): 63
[1]; [13]
  Purple spot/cotyledon (Avg.): 0.68
  Purple spots (Total): 24
[1]; [14]
  Purple spot/cotyledon (Avg.): 1.75
  Purple spots (Total): 61
[1]; [15]
  Purple spot/cotyledon (Avg.): 3.26
  Purple spots (Total): 114
[1]; Table 14 (Change 2), SCR7 1 μM, 1 day, cv. Hong-Kwang, DD→16L/8D, 28° C.
  Editing efficiency: 7.45
[1]; Table 14 (Change 2), SCR7 1 μM, 2 days, cv. Hong-Kwang, DD→16L/8D, 28° C.
  Editing efficiency: 7.17
[1]; Table 14 (Change 2), SCR7 1 μM, 3 days, cv. Hong-Kwang, DD→16L/8D, 28° C.
  Editing efficiency: 7.54
[1]; Table 14 (Change 2), SCR7 10 μM, 1 day, cv. Hong-Kwang, DD→16L/8D, 28° C.
  Editing efficiency: 11.34
[1]; Table 14 (Change 2), SCR7 10 μM, 2 days, cv. Hong-Kwang, DD→16L/8D, 28° C.
  Editing efficiency: 13.52
[1]; Table 14 (Change 2), SCR7 10 μM, 3 days, cv. Hong-Kwang, DD→16L/8D, 28° C.
  Editing efficiency: 15.15
[1]; [16]
  Purple spot/cotyledon (Avg.): 26.0
  Purple spots (Total): 912
[1]; [17]
  Purple spot/cotyledon (Avg.): 17.9
  Purple spots (Total): 627
[1]; [18]
  Purple spot/cotyledon (Avg.): 18.9
  Purple spots (Total): 663
[1]; [19]
  Purple spot/cotyledon (Avg.): 22.9
  Purple spots (Total): 802
[1]; [20]
  Purple spot/cotyledon (Avg.): 21.5
  Purple spots (Total): 754
[1]; [21]
  Purple spot/cotyledon (Avg.): 18.8
  Purple spots (Total): 660
[1]; [22]
  Purple spot/cotyledon (Avg.): 1.96
  Purple spots (Total): 68
[1]; [23]
  Purple spot/cotyledon (Avg.): 1.29
  Purple spots (Total): 45
[1]; [24]
  Purple spot/cotyledon (Avg.): 1.44
  Purple spots (Total): 50
[1]; [25]
  Purple spot/cotyledon (Avg.): 2.60
  Purple spots (Total): 91
[1]; [26]
  Purple spot/cotyledon (Avg.): 2.91
  Purple spots (Total): 102
[1]; [27]
  Purple spot/cotyledon (Avg.): 2.85
  Purple spots (Total): 100
[1]; compared to the comparative control group
  increase of HDR efficiency: 4 times
[1]; cultivation period 0, 1, 2 or 3 days, 0, 1, 10 μM, pTC217
  HDR frequency, dependence on treatment: HDR frequency increases in accordance with an increase in the treatment time (period) and concentration
[1]; [28]
  Purple spot/cotyledon (Avg.): 22.2
  Purple spots (Total): 1154
[1]; [29]
  Purple spot/cotyledon (Avg.): 21.8
  Purple spots (Total): 1137
[1]; [30]
  Purple spot/cotyledon (Avg.): 1
  Purple spots (Total): 52
[1]; [31]
  Purple spot/cotyledon (Avg.): 2.61
  Purple spots (Total): 136
Ligase IV
  increase of HDR: 2 to 19 times
Mammalian ligase IV [2]
  increase of HDR: about 19 times
Mammalian ligase IV [3]
  increase of HDR: ~5 times

From patent US11542530B2, “Method for increasing efficiency of homologous recombination-based gene editing in plant” (INDUSTRY-ACADEMIC COOPERATION FOUNDATION GYEONGSANG …, priority 2018, dated 2023)
